{
  "source": "patent US5665765A",
  "about": "“5,6,7,8-tetrahydronaphtho[2,3-b]furan and indano[5,6-b]furan amine compounds” (Adir et Compagnie, priority 1995, dated 1997)",
  "key": {"[1]": {"molecular_target": "T1, human dopamine D3 receptor (Homo sapiens, UniProt P35462)", "T1 construct": "expressed in transfected cells; membranes", "T1 sequence (P35462 whole entry)": "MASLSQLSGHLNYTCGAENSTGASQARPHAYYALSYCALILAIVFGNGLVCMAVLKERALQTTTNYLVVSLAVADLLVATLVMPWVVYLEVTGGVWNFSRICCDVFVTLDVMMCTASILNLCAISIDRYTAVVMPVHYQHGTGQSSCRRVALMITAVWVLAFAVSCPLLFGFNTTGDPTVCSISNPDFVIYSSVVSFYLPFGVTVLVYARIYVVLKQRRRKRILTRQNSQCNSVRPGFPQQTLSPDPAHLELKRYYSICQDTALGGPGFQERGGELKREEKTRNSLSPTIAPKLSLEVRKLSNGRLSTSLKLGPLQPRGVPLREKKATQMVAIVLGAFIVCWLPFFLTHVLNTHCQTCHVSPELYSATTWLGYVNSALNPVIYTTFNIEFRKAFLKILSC", "test": "binding to human D3 receptors expressed in CHO cells ([125I]-iodosulpride)", "procedure": "(§1) STUDY OF THE BINDING OF THE COMPOUNDS OF THE INVENTION TO HUMAN D2 AND D3 RECEPTORS EXPRESSED IN CHO CELLS\n(§2) CHO (Chinese Hamster Ovary) cells were transfected in a stable manner by the gene coding for the human dopamine D2 or D3 receptor according to methods known from the literature. The native cells are deficient in the enzyme DHFR (DiHydroFolate Reductase). Those cells are cultured in a vessel at 37° C. in a humid atmosphere of 5% CO2 : 95% air. The transfections were carried out using Lipofectine (Gibco). The CHO cells, cotransfected with the human D2 receptor and the gene for resistance to phleomycin, were selected for their resistance to the presence of that antibiotic in the culture medium. The cells transfected with the human D3 receptor were selected in a medium lacking in hypoxanthine/thymidine, in the presence of methotrexate. The compositions of the culture media used are, for CHO--D2 : DMEM (Dulbecco's Modified Eagle Medium) supplemented with 10% foetal calf serum and hypoxanthine/thymidine and, for CHO--D3 : DMEM supplemented with 10% dialysed foetal calf serum. The confluent cells are harvested and the membranes are then prepared.\nAfter a few minutes in the presence of 0.2% trypsin, the cells are recovered and centrifuged at 2000 g for 5 minutes. The cell mass, resuspended in […] tris-HCl buffer, pH 7.5, containing 5 mM MgSO4, is then […] over Polytron®. The homogenate is then centrifuged at 50 000 g for 15 minutes, and the mass is resuspended by gentle sonication in an incubation buffer of the following composition: 50 mM tris-HCl, pH 7.5, containing 120 mM NaCl, 5 mM KCl, 2 mM CaCl2 and 5 mM MgCl2. The membranes are then divided into aliquots and preserved at -80° C. until the day of the experiment.\nThe incubation is carried out in polypropylene tubes at a final volume of 400 μl containing:\n100 μl of [^125 I]-iodosulpride (Amersham) at 0.1 and 0.2 nM for the D2 and D3 receptors respectively.\n100 μl of buffer (total tubes)\n100 μl of raclopride 10 μM (non-specific binding)\n200 μl of membrane preparation containing the D2 or D3 receptors, in a buffer to which\n0.2% BSA (bovine serum albumin) has been added.\n(§3) The ranges of concentration of each compound include at least 7 points determined in triplicate; each experiment is repeated at least twice.\nThe incubation, which lasts 30 minutes at 30° C., is terminated by rapid filtration in a Brandle apparatus, followed by three consecutive washes with tris-HCl buffer, pH 7.4, containing 120 m M NaCl. The filters recovered are then counted with a gamma counter.\nThe IC50, which represents the concentration that gives a 50% inhibition of the binding of the radioligand, is calculated by non-linear regression (Prism Graph method). The Ki value is derived from the formula Ki=IC50 (1+L/Kd) where L is the concentration of [^125 I]-iodosulpride used in the experiment and Kd its dissociation constant. The results are expressed in the form of pKi (pKi=-logKi)."}, "[2]": {"molecular_target": "T2, human dopamine D2 receptor (Homo sapiens, UniProt P14416)", "T2 construct": "expressed in transfected cells; membranes", "T2 sequence (P14416 whole entry)": "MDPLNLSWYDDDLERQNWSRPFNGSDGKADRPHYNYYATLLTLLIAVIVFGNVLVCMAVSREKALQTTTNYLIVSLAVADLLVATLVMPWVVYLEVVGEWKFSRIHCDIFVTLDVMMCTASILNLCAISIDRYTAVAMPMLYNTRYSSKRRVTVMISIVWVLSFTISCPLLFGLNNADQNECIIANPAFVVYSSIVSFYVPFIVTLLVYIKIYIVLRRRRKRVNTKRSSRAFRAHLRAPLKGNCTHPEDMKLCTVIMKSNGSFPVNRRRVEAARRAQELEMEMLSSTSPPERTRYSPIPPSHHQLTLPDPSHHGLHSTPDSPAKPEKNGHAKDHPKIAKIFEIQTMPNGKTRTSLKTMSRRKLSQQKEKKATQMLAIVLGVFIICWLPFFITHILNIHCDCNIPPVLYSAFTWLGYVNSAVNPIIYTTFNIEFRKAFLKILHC", "test": "binding to human D2 receptors expressed in CHO cells ([125I]-iodosulpride)", "conditions": "radioligand dissociation constant used in Ki formula", "procedure": "as §1\nas §2, with “The compositions of the culture media used are, for CHO--D2 : DMEM (Dulbecco's Modified Eagle Medium) supplemented with 10% foetal calf serum and hypoxanthine/thymidine and, for CHO--D3 : DMEM supplemented with 10% dialysed foetal calf serum. The confluent cells are harvested and the membranes are then prepared.” left out\nas §3\nThe incubation, which lasts 30 minutes at 30° C., is terminated by rapid filtration in a Brandle apparatus, followed by three consecutive washes with tris-HCl buffer, pH 7.4, containing 120 m M NaCl. The filters recovered are then counted with a gamma counter. […]"}, "[3]": {"conditions": "[125I]-iodosulpride 0.2 nM, CHO cell membranes, 30 min at 30° C., pKi=-logKi, read-out: pKi (human D3) (converted)"}},
  "note": "Read-outs that look alike come from different tables or passages of the source.",
  "data": [
    {"molecule": "NC1CCc2cc3c(cc2C1)OCC3", "note": "(stereo not drawn)", "values": [
      {"measurement": "Ki", "setting": "[1]; [3]", "result": 158, "unit": "nM"}
    ]},
    {"molecule": "NC1CCc2cc3ccoc3cc2C1", "note": "(stereo not drawn)", "values": [
      {"measurement": "Ki", "setting": "[1]; [3]", "result": 389, "unit": "nM"}
    ]},
    {"molecule": "CCOCCNC1CCc2cc3c(cc2C1)OCC3", "note": "(stereo not drawn)", "values": [
      {"measurement": "Ki", "setting": "[1]; [3]", "result": 759, "unit": "nM"}
    ]},
    {"molecule": "FC(F)(F)CNC1CCc2cc3c(cc2C1)OCC3", "note": "(stereo not drawn)", "values": [
      {"measurement": "Ki", "setting": "[1]; [3]", "result": 10000, "unit": "nM"}
    ]},
    {"molecule": "CN(C)C1CCc2cc3c(cc2C1)OCC3", "note": "(stereo not drawn)", "values": [
      {"measurement": "Ki", "setting": "[1]; [3]", "result": 209, "unit": "nM"}
    ]},
    {"molecule": "CN(CC1CCCCC1)C1CCc2cc3c(cc2C1)OCC3", "note": "(stereo not drawn)", "values": [
      {"measurement": "Ki", "setting": "[1]; [3]", "result": 151, "unit": "nM"}
    ]},
    {"molecule": "c1ccc(CNC2CCc3cc4c(cc3C2)OCC4)cc1", "note": "(stereo not drawn)", "values": [
      {"measurement": "Ki", "setting": "[1]; [3]", "result": 1170, "unit": "nM"}
    ]},
    {"molecule": "CCCN(CCc1ccc(O)cc1)C1CCc2cc3c(cc2C1)OCC3", "note": "(racemic) [Example 3, (7RS)-7-{N-[2-(4-hydroxyphenyl)ethyl]-N-propylamino}-5,6,7,8-tetrahydronaphtho[2,3-b]2,3-dihydrofuran]", "values": [
      {"measurement": "Ki", "setting": "[1]; [3]", "result": 2.24, "unit": "nM"}
    ]},
    {"molecule": "CCCN(CCc1ccc2c(c1)CC(=O)N2)C1CCc2cc3c(cc2C1)OCC3", "note": "(racemic) [Example 6, (7RS)-7-{N-[2-((3H)-indol-2-on-5-yl)ethyl]-N-propylamino}-5,6,7,8-tetrahydronaphtho[2,3-b]2,3-dihydrofuran]", "values": [
      {"measurement": "Ki", "setting": "[1]; [3]", "result": 1.15, "unit": "nM"}
    ]},
    {"molecule": "CCCN(CCCc1ccc2c(c1)CC(=O)N2)C1CCc2cc3c(cc2C1)OCC3", "note": "(racemic) [Example 7, (7RS)-7-{N-[3-((3H)-indol-2-on-5-yl)propyl]-N-propylamino}-5,6,7,8-tetrahydronaphtho[2,3-b]2,3-dihydrofuran]", "values": [
      {"measurement": "Ki", "setting": "[1]; [3]", "result": 3.47, "unit": "nM"}
    ]},
    {"molecule": "CCCN(CCCc1ccc(NC(C)=O)cc1)C1CCc2cc3c(cc2C1)OCC3", "note": "(racemic) [Example 13]", "values": [
      {"measurement": "Ki", "setting": "[1]; [3]", "result": 3.55, "unit": "nM"}
    ]},
    {"molecule": "CCCN[C@@H]1CCc2c(OC)cccc2[C@@H]1C", "note": "[AJ 76, [cis(+)-1S,2R]-5-methoxy-1-methyl-2-n-propylaminotetralin]", "values": [
      {"measurement": "Ki", "setting": "[1]", "result": 69.2, "unit": "nM"},
      {"measurement": "selectivity for the D3 receptor compared with the D2 receptor", "setting": "[1]; human D3 vs D2 binding", "result": 2}
    ]},
    {"molecule": "[^125 I]-iodosulpride", "values": [
      {"measurement": "Kd", "setting": "[1]; radioligand dissociation constant used in Ki formula", "result": 1.31, "unit": "nM"},
      {"measurement": "Kd", "setting": "[2]", "result": 0.5, "unit": "nM"}
    ]}
  ]
}
